Values joined by “and” are separate entries in the source; they are usually repeats but may differ in a detail not shown here. Equal values may be shown once. Toxic doses and inconclusive results are not listed.
Tested on: L1210 leukemia ip in BDF1 mice, survival T/C
Experiment: NCI In Vivo Anticancer Drug Screen. Data for tumor model L1210 Leukemia (intraperitoneal) in B6D2F1 (BDF1) mice
Settings: endpoint: mean survival time, higher = longer survival
Outline: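 Antitumor effect is assessed in tumor-bearing animals. Survival in the compound arm is compared with a vehicle-dosed control arm and expressed as their quotient.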

[1] = dose: 100.0 mg/kg/injection, schedule: Q04DX002 (ip), vehicle: saline with Tween-80
[2] = dose: 100.0 mg/kg/injection, schedule: Q04DX003 (ip), vehicle: saline with Tween-80
[3] = dose: 200.0 mg/kg/injection, schedule: Q04DX003 (ip), vehicle: saline with Tween-80
[4] = dose: 400.0 mg/kg/injection, schedule: Q04DX003 (ip), vehicle: saline with Tween-80
[5] = dose: 100.0 mg/kg/injection, schedule: Q01DX009 (ip), vehicle: saline with Tween-80
[6] = dose: 200.0 mg/kg/injection, schedule: Q01DX009 (ip), vehicle: saline with Tween-80
[7] = dose: 400.0 mg/kg/injection, schedule: Q01DX009 (ip), vehicle: saline with Tween-80
[8] = dose: 100.0 mg/kg/injection, schedule: Q01DX001 (ip), vehicle: carboxymethylcellulose (CMC)
[9] = dose: 200.0 mg/kg/injection, schedule: Q01DX001 (ip), vehicle: carboxymethylcellulose (CMC)
[10] = dose: 400.0 mg/kg/injection, schedule: Q01DX001 (ip), vehicle: carboxymethylcellulose (CMC)
[11] = dose: 100.0 mg/kg/injection, schedule: Q04DX003 (ip), vehicle: Klucel (hydroxypropylcellulose) (HPC)
[12] = dose: 200.0 mg/kg/injection, schedule: Q01DX009 (ip), vehicle: Klucel (hydroxypropylcellulose) (HPC)
[13] = dose: 200.0 mg/kg/injection, schedule: Q04DX003 (ip), vehicle: Klucel (hydroxypropylcellulose) (HPC)
[14] = dose: 400.0 mg/kg/injection, schedule: Q01DX009 (ip), vehicle: Klucel (hydroxypropylcellulose) (HPC)
[15] = dose: 400.0 mg/kg/injection, schedule: Q04DX003 (ip), vehicle: Klucel (hydroxypropylcellulose) (HPC)
[16] = dose: 75.0 mg/kg/injection, schedule: Q01DX001 (ip), vehicle: saline
[17] = dose: 150.0 mg/kg/injection, schedule: Q01DX001 (ip), vehicle: saline
[18] = dose: 300.0 mg/kg/injection, schedule: Q01DX001 (ip), vehicle: saline
[19] = dose: 100.0 mg/kg/injection, schedule: Q01DX001 (sc), vehicle: steriod suspending solution
[20] = dose: 200.0 mg/kg/injection, schedule: Q01DX001 (sc), vehicle: steriod suspending solution
[21] = dose: 400.0 mg/kg/injection, schedule: Q01DX001 (sc), vehicle: steriod suspending solution
[22] = dose: 50.0 mg/kg/injection, schedule: Q01DX009 (ip), vehicle: saline with Tween-80

COC(=O)C12Oc3ccc(-c4ccc5c(c4O)C(O)=C4C(=O)CC(C)C(O)C4(C(=O)OC)O5)c(O)c3C(O)=C1C(=O)CC(C)C2O (stereo unspecified)
T/C (dose: 1.56 mg/kg/injection, schedule: Q01DX009 (ip), vehicle: saline with Tween-80): 104 % of control | T/C (dose: 3.13 mg/kg/injection, schedule: Q01DX009 (ip), vehicle: saline with Tween-80): 100 % of control | T/C (dose: 6.25 mg/kg/injection, schedule: Q01DX009 (ip), vehicle: saline with Tween-80): 105 % of control and 91 % of control | T/C (dose: 12.5 mg/kg/injection, schedule: Q04DX003 (ip), vehicle: saline with Tween-80): 98 % of control | T/C (dose: 25.0 mg/kg/injection, schedule: Q04DX003 (ip), vehicle: saline with Tween-80): 110 % of control | T/C (dose: 50.0 mg/kg/injection, schedule: Q04DX003 (ip), vehicle: saline with Tween-80): 104 % of control

CC(=O)c1cccc(NC(=O)Nc2ccc(Nc3ccccc3)cc2)c1
T/C (dose: 100.0 mg/kg/injection, schedule: Q01DX009 (ip), vehicle: other): 103 % of control | T/C (dose: 200.0 mg/kg/injection, schedule: Q01DX009 (ip), vehicle: other): 101 % of control | T/C (dose: 400.0 mg/kg/injection, schedule: Q01DX009 (ip), vehicle: other): 93 % of control

[Si]c1ccccc1
T/C [1]: 102 % of control | T/C (dose: 200.0 mg/kg/injection, schedule: Q04DX002 (ip), vehicle: saline with Tween-80): 93 % of control | T/C (dose: 400.0 mg/kg/injection, schedule: Q04DX002 (ip), vehicle: saline with Tween-80): 98 % of control

CCOC(Nc1cc(Cl)ccc1Cl)C(=O)c1ccccc1 (stereo unspecified)
T/C (dose: 100.0 mg/kg/injection, schedule: Q01DX001 (ip), vehicle: saline): 97 % of control | T/C (dose: 200.0 mg/kg/injection, schedule: Q01DX001 (ip), vehicle: saline): 100 % of control | T/C (dose: 400.0 mg/kg/injection, schedule: Q01DX001 (ip), vehicle: saline): 96 % of control

COC(=O)C1=C(C)NC(=S)NC1c1ccco1 (stereo unspecified)
T/C [2]: 95 % of control | T/C [3]: 97 % of control | T/C [4]: 97 % of control

NC(=O)c1[nH]cnc1/N=N/N(CCO)CCO
T/C (dose: 50.0 mg/kg/injection, schedule: Q01DX001 (ip), vehicle: water): 102 % of control | T/C (dose: 50.0 mg/kg/injection, schedule: Q04DX003 (ip), vehicle: water): 100 % of control | T/C (dose: 100.0 mg/kg/injection, schedule: Q01DX001 (ip), vehicle: water): 97 % of control | T/C [5]: 105 % of control | T/C [2]: 101 % of control | T/C (dose: 100.0 mg/kg/injection, schedule: Q04DX003 (ip), vehicle: water): 101 % of control | T/C (dose: 200.0 mg/kg/injection, schedule: Q01DX001 (ip), vehicle: water): 103 % of control | T/C [6]: 105 % of control | T/C [3]: 101 % of control | T/C (dose: 200.0 mg/kg/injection, schedule: Q04DX003 (ip), vehicle: water): 100 % of control | T/C (dose: 400.0 mg/kg/injection, schedule: Q01DX001 (ip), vehicle: water): 101 % of control | T/C [7]: 100 % of control | T/C [4]: 98 % of control | T/C (dose: 400.0 mg/kg/injection, schedule: Q04DX003 (ip), vehicle: water): 101 % of control

Cc1cc2oc(=O)c3c(c2c(O)c1CN1CCCCC1)CCCC3
T/C [8]: 98 % of control | T/C [9]: 98 % of control | T/C [10]: 96 % of control

O=C(c1ccccc1)C(CBr)C(Br)c1ccccc1 (stereo unspecified)
T/C (dose: 100.0 mg/kg/injection, schedule: Q01DX009 (ip), vehicle: Klucel (hydroxypropylcellulose) (HPC)): 90 % of control | T/C [11]: 98 % of control | T/C [12]: 101 % of control | T/C [13]: 95 % of control | T/C [14]: 93 % of control | T/C [15]: 88 % of control

Cc1ccc(Br)c2c1CCC2=O
T/C (dose: 100.0 mg/kg/injection, schedule: Q01DX001 (ip), vehicle: Klucel (hydroxypropylcellulose) (HPC)): 93 % of control | T/C (dose: 200.0 mg/kg/injection, schedule: Q01DX001 (ip), vehicle: Klucel (hydroxypropylcellulose) (HPC)): 100 % of control | T/C (dose: 400.0 mg/kg/injection, schedule: Q01DX001 (ip), vehicle: Klucel (hydroxypropylcellulose) (HPC)): 93 % of control

[O-]/[N+](=C\c1ccccc1)c1ccc(Cl)cc1
T/C [16]: 96 % of control | T/C [17]: 95 % of control | T/C [18]: 91 % of control

O=C(NO)Oc1cccc2ccccc12
T/C (dose: 25.0 mg/kg/injection, schedule: Q04DX002 (ip), vehicle: saline with Tween-80): 105 % of control | T/C (dose: 50.0 mg/kg/injection, schedule: Q04DX002 (ip), vehicle: saline with Tween-80): 119 % of control | T/C [1]: 89 % of control

Cc1oc2c(O)ccc(N=Nc3cccc([N+](=O)[O-])c3)c2c1C
T/C [12]: 93 % of control | T/C [14]: 90 % of control

CC(C)CCS(=O)CCC(C)C
T/C [5]: 96 % of control | T/C [2]: 105 % of control | T/C [6]: 96 % of control | T/C [3]: 120 % of control | T/C [7]: 100 % of control | T/C [4]: 97 % of control

CC(C)(C)c1cccc(OS(=O)(=O)c2cccc([N+](=O)[O-])c2)c1
T/C [2]: 95 % of control | T/C [3]: 100 % of control | T/C [4]: 100 % of control

CCOC(=O)N(CCC(=O)OC(C)(C)C)CC(=O)OC(C)(C)C
T/C [16]: 92 % of control | T/C [17]: 95 % of control | T/C [18]: 101 % of control

O=c1oc2ccc(Cl)cc2c2ccccc12
T/C [11]: 98 % of control | T/C [13]: 100 % of control | T/C [15]: 104 % of control

C[C@]12CC[C@H]3[C@@H](CCC4=CC(=O)CC[C@@]43C)[C@@H]1CC[C@@H]2OC(=O)Cc1ccc(N(CCCl)CCCl)cc1
T/C [19]: 94 % of control | T/C [20]: 96 % of control | T/C [21]: 91 % of control

COc1cccc(CC(C)(C)CCO)c1
T/C [22]: 102 % of control | T/C [5]: 100 % of control | T/C [6]: 96 % of control

COc1ccccc1CN1CCCN(Cc2ccccc2OC)C1c1cccc(F)c1
T/C (dose: 50.0 mg/kg/injection, schedule: Q01DX001 (ip), vehicle: carboxymethylcellulose (CMC)): 112 % of control | T/C [8]: 108 % of control | T/C [9]: 108 % of control | T/C [10]: 102 % of control

CC(C)(C)C1CCC(NC(=O)N(CCCl)N=O)CC1 (stereo unspecified)
T/C (dose: 16.0 mg/kg/injection, schedule: Q01DX001 (ip), vehicle: other): 116 % of control | T/C (dose: 125.0 mg/kg/injection, schedule: Q01DX001 (ip), vehicle: other): 198 % of control | T/C (dose: 177.0 mg/kg/injection, schedule: Q01DX001 (ip), vehicle: other): 264 % of control | T/C (dose: 250.0 mg/kg/injection, schedule: Q01DX001 (ip), vehicle: other): 259 % of control and 283 % of control | T/C (dose: 354.0 mg/kg/injection, schedule: Q01DX001 (ip), vehicle: other): 272 % of control | T/C (dose: 375.0 mg/kg/injection, schedule: Q01DX001 (ip), vehicle: other): 275 % of control | T/C (dose: 500.0 mg/kg/injection, schedule: Q01DX001 (ip), vehicle: other): 200 % of control and 317 % of control | T/C (dose: 708.0 mg/kg/injection, schedule: Q01DX001 (ip), vehicle: other): 106 % of control | T/C (dose: 750.0 mg/kg/injection, schedule: Q01DX001 (ip), vehicle: other): 170 % of control and 252 % of control | T/C (dose: 1000.0 mg/kg/injection, schedule: Q01DX001 (ip), vehicle: other): 86 % of control | T/C (dose: 1250.0 mg/kg/injection, schedule: Q01DX001 (ip), vehicle: other): 219 % of control | T/C (dose: 2000.0 mg/kg/injection, schedule: Q01DX001 (ip), vehicle: other): 98 % of control

Cc1cc2nc(Cc3ccccc3)[nH]c2cc1C
T/C [22]: 90 % of control

COc1ccc2c(c1)CCC1C2CCC2(C)C(=O)C(n3cnc4c(=S)nc[nH]c43)CC12 (stereo unspecified)
T/C [19]: 106 % of control | T/C [20]: 110 % of control | T/C [21]: 110 % of control

O=C(OCC1OC(OC2(COC(=O)c3ccccc3)OC(COC(=O)c3ccccc3)C(OC(=O)c3ccccc3)C2OC(=O)c2ccccc2)C(OC(=O)c2ccccc2)C(OC(=O)c2ccccc2)C1OC(=O)c1ccccc1)c1ccccc1 (stereo unspecified)
T/C [5]: 95 % of control | T/C [6]: 92 % of control | T/C [7]: 92 % of control

Source: PubChem BioAssay AID248 (DTP/NCI, 2004)
